Source: patent US20220306695A1, “COMPSTATIN ANALOGUES AND THEIR MEDICAL USES” (priority 2019, published 2022)
Starred links: 1 amine or outer side, 2 acyl side, 3 side chain; linkers in the order of their positions; H or OH if unused. Positions of bridges follow the written chain, without caps; N, C: chain ends. Non-standard residues stand in square brackets, D forms with d. Residues, ends and D or L forms follow the SMILES beside them. Groups on a side chain read outwards from the residue. *: point of attachment. Trp(1-Me) = Cn1cc(C[C@H](N)C(=O)O)c2ccccc21; Abu(4-yl) = O=C([C@H](CC[*:3])N[*:1])[*:2]; C18 diacid = O=C(O)CCCCCCCCCCCCCCCCC(=O)*; C16 diacid = O=C(O)CCCCCCCCCCCCCCC(=O)*; γGlu = O=C(O)[C@H](CCC(=O)[*:2])N[*:1]; AEEA = NCCOCCOCC(=O)O; Sar = CNCC(=O)O

Each compound was assayed on classical complement pathway (assay: In vitro haemolysis assay (inhibition of classical complement pathway)). Conditions: Table 3; human serum, sensitized sheep red blood cells; read-out: IC50[nM], in vitro analysis of inhibition of hemolysis.
Type: cell-based, human
Summary of the method: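 Serially diluted compound (9 points) was preincubated 15 min at room temperature with diluted human serum, titrated per batch to give 70-90% maximal haemolysis, in Tris/casein buffer pH 7.4 with Mg2+/Ca2+. Antibody-sensitized sheep erythrocytes were then added for 30 min at 37° C, and the reaction was stopped with EDTA. Haemolysis was read at A405, with IC50 from 4PL fit.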

`CC[C@H](C)[C@@H]1NC(=O)[C@@H](NC(=O)[C@H](Cc2ccc(O)cc2)NC(=O)[C@H](C)NC(=O)[C@H](CO)NC(=O)CNC(=O)[C@H](CCC(=O)O)NC(C)=O)CSSC[C@@H](C(=O)N[C@H](C(=O)N[C@@H](CCC(=O)O)C(N)=O)[C@@H](C)O)NC(=O)[C@H](CCCNC(=N)N)NC(=O)[C@H](Cc2c[nH]cn2)NC(=O)[C@H](CCC(=O)O)NC(=O)CNC(=O)[C@H](Cc2c[nH]c3ccccc23)NC(=O)[C@H](CC(=O)O)NC(=O)[C@H](CCC(N)=O)NC(=O)[C@H](Cc2cn(C)c3ccccc23)NC1=O` [Compound 59] (Ac-EGSAYCI[Trp(1-Me)]QDWGEHRCTE-NH2; disulfide 6-16) and `CC[C@H](C)[C@@H]1NC(=O)[C@@H](NC(=O)[C@H](Cc2ccccc2)NC(=O)[C@H](CCC(=O)O)NC(=O)[C@H](CO)NC(C)=O)CSSC[C@@H](C(=O)N[C@@H](CO)C(=O)N[C@@H](CCC(=O)O)C(=O)N[C@@H](C)C(N)=O)NC(=O)[C@H](CCCNC(=N)N)NC(=O)[C@H](Cc2c[nH]cn2)NC(=O)[C@H](CCC(=O)O)NC(=O)CNC(=O)[C@H](Cc2c[nH]c3ccccc23)NC(=O)[C@H](CC(=O)O)NC(=O)[C@H](CCC(N)=O)NC(=O)[C@H](Cc2cn(C)c3ccccc23)NC1=O` [Compound 84] (Ac-SEFCI[Trp(1-Me)]QDWGEHRCSEA-NH2; disulfide 4-14) cannot be ordered by IC50: under 100 nM for the first, under 100 nM for the second.

`CC[C@H](C)[C@@H]1NC(=O)[C@@H](NC(=O)[C@H](Cc2ccccc2)NC(=O)[C@H](CCC(=O)O)NC(=O)[C@H](CO)NC(C)=O)CSSC[C@@H](C(=O)N(C)CC(=O)N[C@@H](CCC(=O)O)C(=O)N[C@@H](C)C(N)=O)NC(=O)[C@H](CCCNC(=N)N)NC(=O)[C@H](Cc2c[nH]cn2)NC(=O)[C@H](CCC(=O)O)NC(=O)CNC(=O)[C@H](Cc2c[nH]c3ccccc23)NC(=O)[C@H](CCC(=O)O)NC(=O)[C@H](CCC(N)=O)NC(=O)[C@H](Cc2cn(C)c3ccccc23)NC1=O` [Compound 83] (Ac-SEFCI[Trp(1-Me)]QEWGEHRC[Sar]EA-NH2; disulfide 4-14) and `CC[C@H](C)[C@@H]1NC(=O)[C@@H](NC(=O)[C@H](Cc2ccccc2)NC(=O)[C@H](CCC(=O)O)NC(=O)[C@H](CO)NC(C)=O)CSSC[C@@H](C(=O)N(C)CC(=O)N[C@@H](CCC(=O)O)C(=O)NCC(=O)N[C@@H](CCC(=O)O)C(=O)NCC(=O)NCC(=O)NCC(=O)N[C@@H](CCCCNC(=O)CC[C@H](NC(=O)CNC(=O)CC[C@H](NC(=O)CCCCCCCCCCCCCCCCC(=O)O)C(=O)O)C(=O)O)C(N)=O)NC(=O)[C@H](CCCNC(=N)N)NC(=O)[C@H](Cc2c[nH]cn2)NC(=O)[C@H](CCC(=O)O)NC(=O)CNC(=O)[C@H](Cc2c[nH]c3ccccc23)NC(=O)[C@H](CC(=O)O)NC(=O)[C@H](CCC(N)=O)NC(=O)[C@H](Cc2cn(C)c3ccccc23)NC1=O` [Compound 129] (Ac-SEFCI[Trp(1-Me)]QDWGEHRC[Sar]EGEGGGK([γGlu-Gly-γGlu-C18 diacid])-NH2; disulfide 4-14) cannot be ordered by IC50: under 100 nM for the first, under 100 nM for the second.

`CC[C@H](C)[C@@H]1NC(=O)[C@@H](NC(=O)[C@H](Cc2ccccc2)NC(=O)[C@H](CCC(=O)O)NC(=O)[C@H](CO)NC(C)=O)CSSC[C@@H](C(=O)N[C@H](C(=O)N[C@@H](CCC(=O)O)C(=O)NCC(=O)N[C@@H](CCC(=O)O)C(=O)NCC(=O)NCC(=O)NCC(=O)N[C@@H](CCCCNC(=O)CC[C@H](NC(=O)CNC(=O)CC[C@H](NC(=O)CCCCCCCCCCCCCCC(=O)O)C(=O)O)C(=O)O)C(N)=O)[C@@H](C)O)NC(=O)[C@H](CCCNC(=N)N)NC(=O)[C@H](Cc2c[nH]cn2)NC(=O)[C@H](CCC(=O)O)NC(=O)CNC(=O)[C@H](Cc2c[nH]c3ccccc23)NC(=O)[C@H](CC(=O)O)NC(=O)[C@H](CCC(N)=O)NC(=O)[C@H](Cc2cn(C)c3ccccc23)NC1=O` [Compound 131] (Ac-SEFCI[Trp(1-Me)]QDWGEHRCTEGEGGGK([γGlu-Gly-γGlu-C16 diacid])-NH2; disulfide 4-14) and `CC[C@H](C)[C@@H]1NC(=O)[C@@H](NC(=O)[C@H](Cc2ccc(O)cc2)NC(=O)[C@H](C)NC(=O)[C@H](CO)NC(=O)CNC(=O)[C@H](CCC(=O)O)NC(C)=O)CSCC[C@@H](C(=O)N(C)CC(=O)N[C@@H](CCC(=O)O)C(=O)N[C@@H](CCCCN)C(=O)N[C@@H](CCC(=O)N[C@@H](CCCCNC(=O)COCCOCCNC(=O)COCCOCCNC(=O)CC[C@H](NC(=O)CCCCCCCCCCCCCCCCC(=O)O)C(=O)O)C(N)=O)C(=O)O)NC(=O)[C@H](CCCNC(=N)N)NC(=O)[C@H](Cc2c[nH]cn2)NC(=O)[C@H](CCC(=O)O)NC(=O)CNC(=O)[C@H](Cc2c[nH]c3ccccc23)NC(=O)[C@H](CC(=O)O)NC(=O)[C@H](CCC(N)=O)NC(=O)[C@H](Cc2cn(C)c3ccccc23)NC1=O` [Compound 159, Ac-EGSAYA(1)I[1-Me-Trp]QDWGEHRhC(1)[Sar]EK[γGlu]-K([17-carboxy-heptadecanoyl][γGlu][Peg3][Peg3])-NH2] (Ac-EGSAYCI[Trp(1-Me)]QDWGEHR[Abu(4-yl)][Sar]EK[γGlu]K([AEEA-AEEA-γGlu-C18 diacid])-NH2; thioether 6-16) cannot be ordered by IC50: under 100 nM for the first, under 100 nM for the second.

`CC[C@H](C)[C@H](NC(C)=O)C(=O)N[C@H]1CSSC[C@@H](C(=O)N[C@H](C(N)=O)[C@@H](C)O)NC(=O)[C@H](CO)NC(=O)[C@H](Cc2c[nH]cn2)NC(=O)[C@H](CCC(=O)O)NC(=O)CNC(=O)[C@H](Cc2c[nH]c3ccccc23)NC(=O)[C@H](CC(=O)O)NC(=O)[C@H](CCC(N)=O)NC(=O)[C@H](Cc2c[nH]c3ccccc23)NC(=O)[C@H]([C@@H](C)CC)NC1=O` [Compound 20] (Ac-ICIWQDWGEHSCT-NH2; disulfide 2-12) and `CC[C@H](C)[C@H](NC(C)=O)C(=O)N[C@H]1CSSC[C@@H](C(=O)N[C@H](C(=O)N[C@@H](CCC(=O)O)C(=O)NCC(=O)N[C@@H](CCCCNC(=O)COCCOCCNC(=O)COCCOCCNC(=O)CC[C@H](NC(=O)CCCCCCCCCCCCCCCCC(=O)O)C(=O)O)C(N)=O)[C@@H](C)O)NC(=O)[C@H](CCCNC(=N)N)NC(=O)[C@H](Cc2c[nH]cn2)NC(=O)[C@H](CCC(=O)O)NC(=O)CNC(=O)[C@H](Cc2c[nH]c3ccccc23)NC(=O)[C@H](CC(=O)O)NC(=O)[C@H](CCC(N)=O)NC(=O)[C@H](Cc2c[nH]c3ccccc23)NC(=O)[C@H]([C@@H](C)CC)NC1=O` [Compound 96] (Ac-ICIWQDWGEHRCTEGK([AEEA-AEEA-γGlu-C18 diacid])-NH2; disulfide 2-12) cannot be ordered by IC50: under 100 nM for the first, under 1000 nM for the second.

Same assay, conditions: Table 4; valine 3 versus isoleucine 3 pairs; read-out: CP hemolysis IC50

Compared with `CC[C@H](C)[C@H](NC(C)=O)C(=O)N[C@H]1CSSC[C@@H](C(=O)N[C@H](C(N)=O)[C@@H](C)O)NC(=O)[C@H](CO)NC(=O)[C@H](Cc2c[nH]cn2)NC(=O)[C@H](CCC(=O)O)NC(=O)CNC(=O)[C@H](Cc2c[nH]c3ccccc23)NC(=O)[C@H](CC(=O)O)NC(=O)[C@H](CCC(N)=O)NC(=O)[C@H](Cc2c[nH]c3ccccc23)NC(=O)[C@H]([C@@H](C)CC)NC1=O` [Compound 20] (Ac-ICIWQDWGEHSCT-NH2; disulfide 2-12), `CC[C@H](C)[C@H](NC(C)=O)C(=O)N[C@H]1CSSC[C@@H](C(=O)N[C@H](C(=O)N[C@@H](CCC(=O)O)C(=O)NCC(=O)N[C@@H](CCC(=O)O)C(N)=O)[C@@H](C)O)NC(=O)[C@H](CCCNC(=N)N)NC(=O)[C@H](Cc2c[nH]cn2)NC(=O)[C@H](CCC(=O)O)NC(=O)CNC(=O)[C@H](Cc2c[nH]c3ccccc23)NC(=O)[C@H](CC(=O)O)NC(=O)[C@H](CCC(N)=O)NC(=O)[C@H](Cc2c[nH]c3ccccc23)NC(=O)[C@H](C(C)C)NC1=O` [J, reference compound] (Ac-ICVWQDWGEHRCTEGE-NH2; disulfide 2-12) is 4.1-fold higher in IC50: 59 nM for the first, 240 nM for the second.

Same assay, conditions: Table 5; different residues at position 3 of Ac-IC(1)XWQDWGEHRC(1)T-NH2; read-out: IC50, CP hemolysis

For `CC(C)C[C@H](N)C(=O)O` [Leucine, reference compound], the IC50 was 500 nM.
